Data as given in publication PMC8408635 (The Journal of Biological Chemistry, 2021).

Test system: PniDAH7PS
Conditions: read-out: CM activity / KM, 50 mM BTP pH 7.4, 35 °C

## C=C(O[C@@H]1C=C(C(=O)O)C=C[C@H]1O)C(=O)O [chorismate]
  Km: 21 ± 2 µM
